According to publication PMC12016938, “A small molecule PKCε inhibitor reduces hyperalgesia induced by paclitaxel or opioid withdrawal” (JCI Insight, 2025):
Values joined by “and” are separate entries in the source; they are usually repeats but may differ in a detail not shown here. Equal entries are not always repeated.

Experiments:
[1] = system: conditioned place aversion; experiment: Conditioned place aversion precipitated by naloxone; type: in vivo, DBA/2J mice; conditions: for Preference score: individual mice, time in environment paired with naloxone (5 mg/kg, i.p.) minus time in it at baseline, negative = aversion
Procedure: In addition to hyperalgesia, withdrawal from repeated administration of morphine produces somatic signs of withdrawal and conditioned place aversion. We tested the effects of CP612 on these responses. […] Two hours after this last injection of saline or morphine, mice were administered naloxone (5 mg/kg, i.p.) to precipitate somatic signs of withdrawal and conditioned place aversion. Withdrawal from repeated administration of morphine evoked somatic signs of withdrawal (Figure 11, A–C, and Supplemental Figure 2); only the highest dose of CP612 (40 mg/kg) reduced them (Figure 11, A–C) [H PKC inhibition (3, n = 62) = 33.34, P < 0.001]. Withdrawal from repeated administration of morphine also evoked conditioned place aversion (Figure 11, A and C) [F PKC inhibition (5,78) = 7.16, P < 0.001; mice receiving repeated administration of saline with vehicle versus mice receiving repeated administration of morphine with vehicle, P < 0.001], and this was not modified by CP612 at any dose tested (all P > 0.079).
The place conditioning apparatus was an acrylic box enclosed in light- and sound-attenuating, ventilated chambers (MED Associates). The box had 2 compartments separated by a removable sliding door. […] The dimensions of each compartment were 13.5 × 27 × 17 cm. Infrared light beams and photodetectors located along the walls of the box measured general activity and location of the mouse in each compartment, which were recorded using Activity Monitor version 7.0.5.10 software (Med Associates). On day 0 (pretest), drug-naive mice were acclimated for 15 minutes to the place conditioning apparatus without the sliding door, so they had free access to both compartments of the apparatus. This established a baseline side preference, based on the amount of time spent in each compartment. […] On day 6 (conditioning day), mice were pretreated with vehicle (10 mL/kg, i.p.) or CP612 (5, 10, 20, or 40 mg/kg, i.p.), followed by a single injection of morphine (100 mg/kg, i.p.) 4 hours later. Two hours after this last injection of morphine, mice were administered naloxone (5 mg/kg, i.p.), to precipitate withdrawal, and were immediately confined to 1 side of the conditioning apparatus for 20 minutes. During this conditioning period, mice were filmed (Raspberry Pi Camera) to assess somatic signs of withdrawal ([39]). Given the limited number of cameras and the poor quality of some videos, we were only able to film a subset of mice. The following behaviors were given a score of 1 per occurrence and episode: body shakes (paw tremors and wet dog shakes), teeth chatter, rearing, hopping, wall climbing, and backpedaling. These scores were summed to obtain a global withdrawal score and were obtained from an independent observer who was blind to the experimental conditions. A subset of videos was scored by 2 observers, to ensure internal validity (Cronbach’s α = 0.980, Correlation Observer r = 0.97, slope 1.15, P < 0.005). On day 7 (test day), mice were placed in the conditioning apparatus with free access to both compartments, for 15 minutes. We recorded the time spent in each compartment.

PKCε = biological target: T1, PKCε (Homo sapiens, UniProt Q02156); experiment: scanMax kinome panel (Eurofins-DiscoverX), PKCε; type: binding; design: purchased Eurofins-DiscoverX; conditions: 200 nM CP612
T1 sequence (Q02156 1-737): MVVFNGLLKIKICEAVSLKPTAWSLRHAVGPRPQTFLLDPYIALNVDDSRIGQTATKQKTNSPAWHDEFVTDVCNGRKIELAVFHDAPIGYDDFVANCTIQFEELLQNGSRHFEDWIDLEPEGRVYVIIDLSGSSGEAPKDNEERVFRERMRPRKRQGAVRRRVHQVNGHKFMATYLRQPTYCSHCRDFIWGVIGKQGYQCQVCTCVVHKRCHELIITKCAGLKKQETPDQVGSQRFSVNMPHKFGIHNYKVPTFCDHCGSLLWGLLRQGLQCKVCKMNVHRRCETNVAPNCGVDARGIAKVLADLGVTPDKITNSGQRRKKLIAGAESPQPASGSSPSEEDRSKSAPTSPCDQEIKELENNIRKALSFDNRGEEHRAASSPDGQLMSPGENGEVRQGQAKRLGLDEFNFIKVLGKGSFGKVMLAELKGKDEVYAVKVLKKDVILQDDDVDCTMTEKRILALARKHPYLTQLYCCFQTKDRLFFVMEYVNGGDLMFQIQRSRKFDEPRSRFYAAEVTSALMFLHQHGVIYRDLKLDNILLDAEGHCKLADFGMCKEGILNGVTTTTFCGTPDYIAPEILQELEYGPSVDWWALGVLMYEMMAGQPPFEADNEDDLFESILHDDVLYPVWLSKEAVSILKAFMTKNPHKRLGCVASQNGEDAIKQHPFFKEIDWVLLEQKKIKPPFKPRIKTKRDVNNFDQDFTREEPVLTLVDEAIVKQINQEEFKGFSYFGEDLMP
Procedure: (§1) CP612 was screened for kinome specificity at 200 nM against 468 kinases using the scanMax assay panel from Eurofins-DiscoverX. CP612 inhibited 10 other WT kinases besides PKCε, all to < 10% of control: CLK1 (CDC Like Kinase 1), CLK4, PKN1 (Protein kinase N1), PKN2, PKCδ, PKCη, PKCθ, PRKG2 (Protein Kinase CGMP-Dependent 2), ROCK1, and ROCK2.

PKCθ = PKCθ (Homo sapiens, UniProt Q04759); experiment: scanMax kinome panel, PKCθ; type: binding; design: purchased Eurofins-DiscoverX; conditions: 200 nM CP612; read-out: scanMax % of control, PKCθ
Procedure: as §1

PKCθ, sequence (Q04759 whole entry): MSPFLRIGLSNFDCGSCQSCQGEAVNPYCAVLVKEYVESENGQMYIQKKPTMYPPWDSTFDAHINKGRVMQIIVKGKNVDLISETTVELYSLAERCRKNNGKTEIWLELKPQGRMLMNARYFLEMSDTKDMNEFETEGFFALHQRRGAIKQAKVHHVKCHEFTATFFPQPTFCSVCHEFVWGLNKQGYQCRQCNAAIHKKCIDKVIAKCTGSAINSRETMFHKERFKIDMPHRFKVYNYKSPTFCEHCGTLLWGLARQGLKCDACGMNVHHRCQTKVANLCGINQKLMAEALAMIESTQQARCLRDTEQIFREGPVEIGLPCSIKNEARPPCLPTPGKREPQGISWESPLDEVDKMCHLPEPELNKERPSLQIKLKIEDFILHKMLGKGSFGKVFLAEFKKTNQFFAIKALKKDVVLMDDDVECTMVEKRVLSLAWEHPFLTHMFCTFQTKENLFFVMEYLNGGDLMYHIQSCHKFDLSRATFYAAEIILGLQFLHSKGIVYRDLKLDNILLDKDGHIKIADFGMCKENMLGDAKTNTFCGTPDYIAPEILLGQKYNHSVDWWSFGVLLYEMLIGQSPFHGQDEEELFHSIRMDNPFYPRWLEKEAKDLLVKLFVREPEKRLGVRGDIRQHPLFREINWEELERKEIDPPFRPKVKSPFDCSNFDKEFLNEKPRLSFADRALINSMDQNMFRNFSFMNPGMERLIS

## N[C@H](CNC(=O)C1(c2ccc(Cl)cc2)CCCC1)c1ccc(C(=O)Nc2ccncc2)cc1 [CP612]
[1]; Morphine + CP612 5 mg/kg
  Preference score: -0.0843 and -0.28 and -0.22 and -0.17 and -0.023 and -0.35
[1]; Morphine + CP612 10 mg/kg
  Preference score: -0.07 and -0.22 and -0.42 and -0.21 and -0.19 and -0.38 and -0.15 and -0.12 and 0.14 and -0.13 and -0.10 and 0.0341 and -0.23
[1]; Morphine + CP612 20 mg/kg
  Preference score: -0.0656 and -0.40 and -0.13 and -0.25 and -0.10 and -0.30 and -0.31
[1]; Morphine + CP612 40 mg/kg
  Preference score: -0.17 and -0.18 and -0.35 and -0.39 and 0.000111 and -0.22 and 0.013 and -0.28 and -0.25 and -0.09 and -0.27
[1]; male DBA/2J mice, CP612 5, 10, 20, 40 mg/kg i.p.
  Effect on conditioned place aversion: not modified
PKCε
  scanMax result, PKCε: inhibited
PKCθ
  remaining binding at 0.2 µM: < 10%
